# Assay results reported in patent US4525473A, “Cephalosporins” (Bristol-Myers Company, priority 1983, dated 1985).
# Like-named read-outs stand apart in the source and are kept apart here.
# Experiments:
# Format in all cases: cell-based
# [1] = tested on: Penicillin(PC)sensitive S. aureus; assay: MIC by two-fold serial agar dilution in Mueller-Hinton agar, Gp-Ia; details: for MIC: Staphylococcus aureus
# Experimental: (§1) In the primary evaluation of the compounds of this invention, the Minimum Inhibitory Concentrations (MIC's) of the compounds were determined by the two-fold serial agar dilution method in Mueller-Hinton agar against 32 strains of test organisms in six groups.
# Gp-Ia: Penicillin(PC)sensitive S. aureus
# PCresistant S. aureus = assay: MIC by two-fold serial agar dilution in Mueller-Hinton agar, Gp-Ib; details: for MIC: Staphylococcus aureus, read-out: Geometric Mean of MIC
# Experimental: as §1
# GpIb: PCresistant S. aureus
# [2] = tested on: Cephalothin(CET)sensitive E. coli (2 strains), K. pneumoniae (1) and P. mirabilis (2); assay: MIC by two-fold serial agar dilution in Mueller-Hinton agar, Gn-Ia; details: for MIC: read-out: Geometric Mean of MIC
# Experimental: as §1
# GnIa: Cephalothin(CET)sensitive E. coli (2 strains), K. pneumoniae (1) an […]
# [3] = tested on: CETresistant E. coli (3) and K. pneumoniae (2); assay: MIC by two-fold serial agar dilution in Mueller-Hinton agar, Gn-Ib; details: for MIC: Escherichia coli, read-out: Geometric Mean of MIC
# Experimental: as §1
# GnIb: CETresistant E. coli (3) and K. pneumoniae (2)
# [4] = tested on: M. morganii (1), E. cloacae (2) and S. marcescens (2); assay: MIC by two-fold serial agar dilution in Mueller-Hinton agar, Gn-II; details: for MIC: read-out: Geometric Mean of MIC
# Experimental: as §1
# GnII: M. morganii (1), E. cloacae (2) and S. marcescens (2)
# P. aeruginosa = assay: MIC by two-fold serial agar dilution in Mueller-Hinton agar, Gn-III; details: for MIC: Pseudomonas aeruginosa, read-out: Geometric Mean of MIC
# Experimental: as §1
# [5] = Gp-Ia, 5 strains, PC-sensitive S. aureus, read-out: Geometric Mean of MIC
# [6] = Gp-Ib, 5 strains, PC-resistant S. aureus
# [7] = Gn-Ia, 5 strains, CET-sensitive
# [8] = Gn-III, 7 strains, P. aeruginosa
# [9] = Gn-Ib, 5 strains, CET-resistant
# [10] = read-out: Geometric Mean of MIC, Gp-Ia, 5 strains, PC-sensitive S. aureus
Structure (SMILES),"MIC [1, 5] [µg/mL]",MIC (PCresistant S. aureus; [6]) [µg/mL],"MIC [2, 7] [µg/mL]",MIC [3] [µg/mL],MIC [4] [µg/mL],MIC (P. aeruginosa; [8]) [µg/mL],"MIC [3, 9] [µg/mL]","MIC ([4]; Gn-II, 5 strains) [µg/mL]","MIC [1, 10] [µg/mL]",further results
CO/N=C(\C(=O)NC1C(=O)N2C(C(=O)[O-])=C(C[N+]3(CCO)CCCC3)CSC12)c1csc(N)n1 (stereo not drawn) [Example 17],1.6,4.1,0.057,0.15,0.2,4.1,–,–,–,–
"CO/N=C(\C(=O)NC1C(=O)N2C(C(=O)[O-])=C(C[N+]3(C)CCC[C@H]3C(N)=O)CSC12)c1csc(N)n1 (single isomer, unassigned) [8 Isomer A]",2.1,4.7,0.098,–,–,11,0.39,0.35,–,–
"CO/N=C(\C(=O)NC1C(=O)N2C(C(=O)[O-])=C(C[N+]3(C)CCc4nc(N)sc4C3)CSC12)c1csc(N)n1 (stereo not drawn) [Example 15, 7-[(Z)-2-(2-Aminothiazol-4-yl)-2-methoxyiminoacetamido]-3-[(2-amino-4,5,7-tetrahydro-6-methyl-6-thiazolo[5,4-c]pyridinio)methyl]-3-cephem-4-carboxylate]",–,2.8,0.034,0.16,–,4.6,–,0.18,1.1,–
"CO/N=C(\C(=O)NC1C(=O)N2C(C(=O)[O-])=C(C[N+]3(C)CCc4scnc4C3)CS[C@H]12)c1csc(N)n1 (stereo partly drawn) [Example 6, 7-[(Z)-2-(2-Aminothiazol-4-yl)-2-methoxyiminoacetamido]-3-(5-methyl-4,5,6,7-tetrahydro-5-thiazolo[4,5-c]pyridinio)methyl-3-cephem-4-carboxylate]",0.9,3.2,–,0.15,0.4,4.2,–,–,–,MIC [2]: 0.025 µg/mL
"CO/N=C(\C(=O)NC1C(=O)N2C(C(=O)[O-])=C(C[N+]3(CC(=O)O)CCCC3)CS[C@H]12)c1csc(N)n1 (stereo partly drawn) [Example 16, 7-[(Z)-2-(2-Aminothiazol-4-yl)-2-methoxyiminoacetamido]-3-[1-(carboxymethyl)pyrrolidinio]methyl-3-cephem-4-carboxylate]",6.5,17,–,0.23,0.14,5.1,–,–,–,MIC [2]: 0.02 µg/mL
"CO/N=C(\C(=O)NC1C(=O)N2C(C(=O)[O-])=C(C[N+]3(C)Cc4ccccc4C3)CS[C@H]12)c1csc(N)n1 (stereo partly drawn) [Example 14, 7-[(Z)-2-(2-Aminothiazol-4-yl)-2-methoxyiminoacetamido]-3-[(2-methyl-2-benzo[c]pyrrolinio)methyl]-3-cephem-4-carboxylate]",0.51,1.7,0.042,–,–,7.7,0.13,0.13,–,–
"CO/N=C(\C(=O)NC1C(=O)N2C(C(=O)[O-])=C(C[N+]34CCN(CC3)CC4)CS[C@H]12)c1csc(N)n1 (stereo partly drawn) [Example 4, 7-[(Z)-2-(2-Aminothiazol-4-yl)-2-methoxyiminoacetamido]-3-(1,4-diazabicyclo[2,2,2]octan-1-io)methyl-3-cephem-4-carboxylate]",2.9,5.8,0.07,0.16,0.8,–,–,–,–,MIC (P. aeruginosa): 3.6 µg/mL
"CO/N=C(\C(=O)NC1C(=O)N2C(C(=O)[O-])=C(C[N+]3(C)CCC(O)C3)CS[C@H]12)c1csc(N)n1 (stereo partly drawn) [Example 9, 7-[(Z)-2-(2-Aminothiazol-4-yl)-2-methoxyiminoacetamido]-3-(3-hydroxy-1-methylpyrrolidinio)methyl-3-cephem-4-carboxylate]",–,3.3,0.27,0.14,0.14,2.9,–,–,1.3,–
"CO/N=C(\C(=O)NC1C(=O)N2C(C(=O)[O-])=C(C[N+]3(C)CCSCC3)CS[C@H]12)c1csc(N)n1 (stereo partly drawn) [Example 20, 7-[(Z)-2-(2-Aminothiazol-4-yl)-2-methoxyiminoacetamido]-3-(4-methylthiomorpholinio)methyl-3-cephem-4-carboxylate]",1.2,4.1,0.064,–,–,3.7,0.25,0.25,–,–
"CO/N=C(\C(=O)NC1C(=O)N2C(C(=O)[O-])=C(C[N+]3(C)CCCCC3)CS[C@H]12)c1csc(N)n1 (stereo partly drawn) [Example 1, 7-[(Z)-2-(2-Aminothiazol-4-yl)-2-methoxyiminoacetamido]-3-(1-methyl-1-piperidinio)methyl-3-cephem-4-carboxylate]",–,2.9,0.03,0.14,–,3.2,–,0.55,1.3,–
"CO/N=C(\C(=O)NC1C(=O)N2C(C(=O)[O-])=C(C[N+]3(C)CCN(C)CC3)CS[C@H]12)c1csc(N)n1 (stereo partly drawn) [Example 5, 7-[(Z)-2-(2-Aminothiazol-4-yl)-2-methoxyiminoacetamido]-3-(1,4-dimethyl-1-piperazinio)methyl-3-cephem-4-carboxylate]",2.3,4.7,0.057,–,–,–,0.12,0.78,–,MIC (P. aeruginosa): 3.6 µg/mL
"CO/N=C(\C(=O)NC1C(=O)N2C(C(=O)[O-])=C(C[N+]3(C)CCSC3)CSC12)c1csc(N)n1 (single isomer, unassigned) [13 Isomer A]",0.84,3.1,0.046,–,–,5.9,–,–,–,"Geometric Mean of MIC [3, 9]: 0.28 µg/mL; Geometric Mean of MIC ([4]; Gn-II, 5 strains): 0.28 µg/mL"
"CC[N+]1(CC2=C(C(=O)[O-])N3C(=O)C(NC(=O)/C(=N\OC)c4csc(N)n4)[C@H]3SC2)CCCC1 (stereo partly drawn) [Example 10, 7-[(Z)-2-(2-Aminothiazol-4-yl)-2-methoxyiminoacetamido]-3-(1-ethylpyrrolidinio)methyl-3-cephem-4-carboxylate]",–,–,–,–,–,3.1,0.13,0.13,1,MIC (PCresistant S. aureus): 2 µg/mL; MIC [2]: 0.037 µg/mL
"CO/N=C(\C(=O)NC1C(=O)N2C(C(=O)[O-])=C(C[N+]34CCC(CC3)CC4)CS[C@H]12)c1csc(N)n1 (stereo partly drawn) [Example 3, 7-[(Z)-2-(2-Aminothiazol-4-yl)-2-methoxyiminoacetamido]-3-(1-quinuclidinio)methyl-3-cephem-4-carboxylate]",0.77,–,–,–,–,2.8,0.14,0.84,–,MIC (PCresistant S. aureus): 2.5 µg/mL; MIC [2]: 0.04 µg/mL
"CO/N=C(\C(=O)NC1C(=O)N2C(C(=O)[O-])=C(C[N+]3(C)CCCC3C)CS[C@H]12)c1csc(N)n1 (stereo partly drawn) [Example 19, 7-[(Z)-2-(2-Aminothiazol-4-yl)-2-methoxyiminoacetamido]-3-(1,2-dimethylpyrrolidinio)methyl-3-cephem-4-carboxylate]",1.4,3.8,0.078,–,–,6,0.27,0.27,–,–
"CO/N=C(\C(=O)NC1C(=O)N2C(C(=O)[O-])=C(C[N+]3(C)CCCCCC3)CS[C@H]12)c1csc(N)n1 (stereo partly drawn) [Example 7, 7-[(Z)-2-(2-Aminothiazol-4-yl)-2-methoxyiminoacetamido]-3-(1-methylhexahydroazepinio)methyl-3-cephem-4-carboxylate]",0.9,3.2,0.05,–,–,4.2,0.13,0.15,–,–
"CO/N=C(\C(=O)NC1C(=O)N2C(C(=O)[O-])=C(C[N+]3(C)CCOCC3)CS[C@H]12)c1csc(N)n1 (stereo partly drawn) [Example 2, 7-[(Z)-2-(2-Aminothiazol-4-yl)-2-methoxyiminoacetamido]-3-(4-methyl-4-morpholinio)methyl-3-cephem-4-carboxylate]",1.7,5,0.061,0.22,–,4,–,0.96,–,–
"CO/N=C(\C(=O)NC1C(=O)N2C(C(=O)[O-])=C(C[N+]3(C)CCC[C@H]3C(N)=O)CSC12)c1csc(N)n1 (single isomer, unassigned) [8 Isomer B]",–,–,–,0.2,0.23,–,–,–,–,"Geometric Mean of MIC ([1]; Gp-Ia, 5 strains, PC-sensitive S. aureus): 1.6 µg/mL; Geometric Mean of MIC (PCresistant S. aureus; [6]): 4.1 µg/mL; Geometric Mean of MIC [2, 7]: 0.057 µg/mL; Geometric Mean of MIC (P. aeruginosa; [8]): 7.2 µg/mL"
"C=CC[N+]1(CC2=C(C(=O)[O-])N3C(=O)C(NC(=O)/C(=N\OC)c4csc(N)n4)[C@H]3SC2)CCCC1 (stereo partly drawn) [Example 21, 7-[(Z)-2-(2-Aminothiazol-4-yl)-2-methoxyiminoacetamido]-3-(N-allylpyrrolidinio)methyl-3-cephem-4-carboxylate]",–,2.9,0.045,0.15,–,6.5,–,0.18,1.1,–
"CO/N=C(\C(=O)NC1C(=O)N2C(C(=O)[O-])=C(C[N+]3(C)CCOC3)CSC12)c1csc(N)n1 (single isomer, unassigned) [12 Isomer A]",–,4.4,0.046,–,–,5.4,0.25,0.21,1.1,–
